In patent US11957683B2, “Bicyclic compounds” (Aligos Therapeutics, Inc., priority 2021, dated 2024):
pEC50: −log10 of the molar value.

Key:
[1] = Cell viability by CellTiter-Glo 2.0 (intracellular ATP) in HepG2.117 cells; type: cell-based; conditions: human, CellTiter-Glo 2.0, HepG2.117 cells, 3 days incubation
Protocol: (§1) The following assay procedure describes the HBV antiviral assay, using HepG2.117 cells, which carry a stably integrated genotype D HBV genome under the control of a Tet-off promoter, and intracellular HBV DNA quantification as endpoint. Cell viability is assessed in parallel by measuring the intracellular ATP content using CellTiter-Glo 2.0 (Promega).
(§2) On day 1, medium is removed from each well, the test articles are diluted in culture medium without doxcycyline and 100 μL was added to cell culture wells (9 concentrations, 4-fold dilution). For each plate, 6 untreated (merely DMSO) wells are included. The final concentration of DMSO in the culture medium is 2%. Each plate is prepared in duplicate (one for HBV DNA extraction, one for CellTiter-Glo 2.0 measurement). The cells are incubated at 37° C. and 5% CO2 for 3 days.
(§3) On day 4, cell viability is assessed using CellTiter-Glo 2.0 and cell lysates are prepared for HBV DNA extraction and subsequent quantification by qPCR.
Using the other plates, the cell viability is quantified by CellTiter-Glo 2.0 according to the manufacturer's manual. In brief, 100 μL of reagent solution is added to the culture plates and shaken for 2′. The plates are incubated at rt for 10 min and luminescence signal is subsequently measured on a VarioSkan Lux (ThermoFisher) plate reader.
(§4) Cell viability is calculated as follows: % Cell viability=(luminescence value of test sample)/(average luminescence value of 2% DMSO control)×100%. HBV DNA inhibition was calculated as follows: 100−(HBV DNA copy number of test sample)/(average HBV DNA copy number of 2% DMSO control)×100%. No normalization to entecavir is required due to the excellent dynamic window of this assay. The CC50, EC50 and EC90 values were determined by dose-response curves fitted using non-linear regression.

HBV = assay: HBV-DNA antiviral assay using HepG2.117 cells; type: cell-based, HBV genotype D; conditions: Hepatitis B virus, 72 h; HBV DNA inhibition, intracellular HBV DNA by qPCR, HepG2.117 cells, 3 days incubation; read-out: EC50
Protocol: as §1
On day 0, HepG2.117 cells (which are maintained in routine cell culture with doxycycline present in the medium at a final concentration of 1 μg/mL) are seeded in 96-well plates (white with clear bottom) at a density of 2.0×10^4 cells/well (0.1 mL/well) in medium without doxycycline to induce pgRNA transcription and subsequent formation of HBV particles. The cells are incubated at 37° C. and 5% CO2.
as §2, §3
Medium is removed from each well and 100 μL of 0.33% NP-40 in H2O was added to each well. Plates are sealed, incubated at 4° C. for 5 mins, vortexed extensively and centrifuged briefly. Next, 35 μL of lysate is added to 65 μL QuickExtract DNA Extraction Solution (Epicentre) in a PCR plate for each well. PCR plate is incubated at 65° C. for 6 mins, 98° C. for 2 mins and finally cooled to 4° C. HBV DNA is then quantified by qPCR with HBV-specific primers and probes as specified in Table 2 using the Bio-Rad SSOAdvanced Universal Probes Supermix on a CFX96 machine (Bio-Rad). The PCR cycle program consisted of 95° C. for 3 mins, followed by 40 cycles at 95° C. for 10 sec and 60° C. for 30 sec.
A DNA standard is prepared by dilution of an IDT gBlock corresponding to the amplicon with concentrations ranging from 10^2 to 10^8 copies/input (i.e., per 4 μL) and used to generate a standard curve by plotting Cq values vs. HBV DNA standard concentration. The quantity of HBV DNA in each sample is determined by interpolating from the standard curve.
as §4

SMILES	CC50 at 3 days [1]	pEC50 (HBV)
C=C[C@H](C)Nc1nc2c(c(=O)n1-c1ccc3c(c1)ncn3CC(F)(F)F)C[C@@H](C)N(C(=O)c1ccc(Br)c(C(F)(F)F)c1)C2 [Compound 35, (6R)-7-[4-bromo-3-(trifluoromethyl)benzoyl]-6-methyl-2-[[(1S)-1-methylallyl]amino]-3-[1-(2,2,2-trifluoroethyl)benzimidazol-5-yl]-6,8-dihydro-5H-pyrido[3,4-d]pyrimidin-4-one]	28500 nM	> 7.30
C=C[C@H](C)Nc1nc2c(c(=O)n1-c1ccc(C(=O)NC)c(Cl)c1)C[C@@H](C)N(C(=O)c1ccc(Br)c(C(F)(F)F)c1)C2 [Compound 20, 4-((R)-7-(4-bromo-3-(trifluoromethyl)benzoyl)-2-(((S)-but-3-en-2-yl)amino)-6-methyl-4-oxo-5,6,7,8-tetrahydropyrido[3,4-d]pyrimidin-3(4H)-yl)-2-chloro-N-methylbenzamide]	2950 nM	> 7.30
C=C[C@H](C)Nc1nc2c(c(=O)n1-c1ccc3c(c1)ncn3C1CC1)C[C@@H](C)N(C(=O)c1ccc(Br)c(C(F)(F)F)c1)C2 [Compound 38, (6R)-7-[4-bromo-3-(trifluoromethyl)benzoyl]-3-(1-cyclopropylbenzimidazol-5-yl)-6-methyl-2-[[(1S)-1-methylallyl]amino]-6,8-dihydro-5H-pyrido[3,4-d]pyrimidin-4-one]	24300 nM	> 7.30
C=CC(C)N(C)c1nc2c(c(=O)n1-c1ccc(C(=O)NC)cc1)C[C@@H](C)N(C(=O)c1ccc(Br)c(C(F)(F)F)c1)C2 (some centres unmarked) [Compound 10a]	> 50000 nM	> 7.30
C=C[C@H](C)Nc1nc2c(c(=O)n1-c1ccc(OC3CC3)cc1)C[C@@H](C)N(C(=O)c1ccc(Br)c(C(F)(F)F)c1)C2 [Compound 12, (R)-7-(4-bromo-3-(trifluoromethyl)benzoyl)-2-((S)-but-3-en-2-ylamino)-3-(4-cyclopropoxyphenyl)-6-methyl-5,6,7,8-tetrahydropyrido[3,4-d]pyrimidin-4(3H)-one]	> 50000 nM	> 7.30
C=CC1(Nc2nc3c(c(=O)n2-c2ccc(C(=O)NC)cc2)C[C@@H](C)N(C(=O)c2ccc(Br)c(C(F)(F)F)c2)C3)CCC1 [Compound 8]	7330 nM	> 7.30
C=CC(C)(C)Nc1nc2c(c(=O)n1-c1ccc(C(=O)NC)cc1)C[C@@H](C)N(C(=O)c1ccc(Br)c(C(F)(F)F)c1)C2 [Compound 1, (R)-4-(7-(4-bromo-3-(trifluoromethyl)benzoyl)-6-methyl-2-((2-methylbut-3-en-2-yl)amino)-4-oxo-5,6,7,8-tetrahydropyrido[3,4-d]pyrimidin-3(4H)-yl)-N-methylbenzamide]	> 500 nM	> 7.30
CNC(=O)c1ccc(-n2c(NCC=C(C)C)nc3c(c2=O)C[C@@H](C)N(C(=O)c2ccc(Br)c(C(F)(F)F)c2)C3)cc1 [Compound 7]	7350 nM	> 7.30
C=C[C@H](C)Nc1nc2c(c(=O)n1-c1cnc(C(=O)NC)c(Cl)c1)C[C@@H](C)N(C(=O)c1ccc(Br)c(C(F)(F)F)c1)C2 [Compound 42, 5-[(6R)-7-[4-bromo-3-(trifluoromethyl)benzoyl]-6-methyl-2-[[(1S)-1-methylallyl]amino]-4-oxo-6,8-dihydro-5H-pyrido[3,4-d]pyrimidin-3-yl]-3-chloro-N-methyl-pyridine-2-carboxamide]	> 50000 nM	> 7.30
C=C[C@H](C)Nc1nc2c(c(=O)n1-c1cnc3c(ncn3C)n1)C[C@@H](C)N(C(=O)c1ccc(Br)c(C(F)(F)F)c1)C2 [Compound 46, (6R)-7-[4-bromo-3-(trifluoromethyl)benzoyl]-6-methyl-2-[[(1S)-1-methylallyl]amino]-3-(1-methylimidazo[4,5-b]pyrazin-5-yl)-6,8-dihydro-5H-pyrido[3,4-d]pyrimidin-4-one]	> 50000 nM	> 7.30
C=C[C@H](C)Nc1nc2c(c(=O)n1-c1cc(C)c3c(c1)ncn3C)C[C@@H](C)N(C(=O)c1ccc(Br)c(C(F)(F)F)c1)C2 [Compound 47, (6R)-7-[4-bromo-3-(trifluoromethyl)benzoyl]-3-(1,7-dimethylbenzimidazol-5-yl)-6-methyl-2-[[(1S)-1-methylallyl]amino]-6,8-dihydro-5H-pyrido[3,4-d]pyrimidin-4-one]	23700 nM	> 7.30
C=CC(C)(C)Nc1nc2c(c(=O)n1-c1ccc3c(c1)ncn3C)C[C@@H](C)N(C(=O)c1ccc(Br)c(C(F)(F)F)c1)C2 [Compound 29, (R)-7-(4-bromo-3-(trifluoromethyl)benzoyl)-6-methyl-3-(1-methyl-1H-benzo[d]imidazol-5-yl)-2-((2-methylbut-3-en-2-yl)amino)-5,6,7,8-tetrahydropyrido[3,4-d]pyrimidin-4(3H)-one]	30500 nM	> 7.30
C=C[C@H](C)Nc1nc2c(c(=O)n1-c1cc(F)c3ncn(C)c3c1)C[C@@H](C)N(C(=O)c1ccc(Br)c(C(F)(F)F)c1)C2 [Compound 49, (6R)-7-[4-bromo-3-(trifluoromethyl)benzoyl]-3-(7-fluoro-3-methyl-benzimidazol-5-yl)-6-methyl-2-[[(1S)-1-methylallyl]amino]-6,8-dihydro-5H-pyrido[3,4-d]pyrimidin-4-one]	23000 nM	> 7.30
C=C[C@H](C)Nc1nc2c(c(=O)n1-c1ccc3c(c1)nc(C)n3C)C[C@@H](C)N(C(=O)c1ccc(Br)c(C(F)(F)F)c1)C2 [Compound 28, (R)-7-(4-bromo-3-(trifluoromethyl)benzoyl)-2-(((S)-but-3-en-2-yl)amino)-3-(1,2-dimethyl-1H-benzo[d]imidazol-5-yl)-6-methyl-5,6,7,8-tetrahydropyrido[3,4-d]pyrimidin-4(3H)-one]	30500 nM	> 7.30
CNC(=O)c1ccc(-n2c(C#CC(C)(C)N)nc3c(c2=O)C[C@@H](C)N(C(=O)c2ccc(Br)c(C(F)(F)F)c2)C3)cc1 [Compound 14, (R)-4-(2-(3-amino-3-methylbut-1-yn-1-yl)-7-(4-bromo-3-(trifluoromethyl)benzoyl)-6-methyl-4-oxo-5,6,7,8-tetrahydropyrido[3,4-d]pyrimidin-3(4H)-yl)-N-methylbenzamide]	> 500 nM	6.30 to 7.30
C=CC(C)Nc1nc2c(c(=O)n1-c1ccc(C(=O)NC)cc1)C[C@@H](C)N(C(=O)c1ccc(Br)c(C(F)(F)F)c1)C2 (single isomer, unassigned) [Compound 2a]	> 500 nM	> 7.30
C=C[C@H](C)Nc1nc2c(c(=O)n1-c1ccc(-c3cnn(C)c3)cc1)C[C@@H](C)N(C(=O)c1ccc(Br)c(C(F)(F)F)c1)C2 [Compound 27, (R)-7-(4-bromo-3-(trifluoromethyl)benzoyl)-2-(((S)-but-3-en-2-yl)amino)-6-methyl-3-(4-(1-methyl-1H-pyrazol-4-yl)phenyl)-5,6,7,8-tetrahydropyrido[3,4-d]pyrimidin-4(3H)-one]	22800 nM	> 7.30
C=C[C@H](C)Nc1nc2c(c(=O)n1-c1ccc(OC[C@@H](C)O)cn1)C[C@@H](C)N(C(=O)c1ccc(Br)c(C(F)(F)F)c1)C2 [Compound 39, (6R)-7-[4-bromo-3-(trifluoromethyl)benzoyl]-3-[5-[(2R)-2-hydroxypropoxy]-2-pyridyl]-6-methyl-2-[[(1S)-1-methylallyl]amino]-6,8-dihydro-5H-pyrido[3,4-d]pyrimidin-4-one]	28100 nM	> 7.30
C=C[C@H](C)Nc1nc2c(c(=O)n1-c1cnc3c(c1)ncn3C)C[C@@H](C)N(C(=O)c1ccc(Br)c(C(F)(F)F)c1)C2 [Compound 26, (R)-7-(4-bromo-3-(trifluoromethyl)benzoyl)-2-(((S)-but-3-en-2-yl)amino)-6-methyl-3-(3-methyl-3H-imidazo[4,5-b]pyridin-6-yl)-5,6,7,8-tetrahydropyrido[3,4-d]pyrimidin-4(3H)-one]	> 500 nM	> 7.30
